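Where inhibition never reached the appropriate level, the endpoint shown equals the highest concentration tested. Otherwise, values were interpolated linearly from a five-concentration, 48-hour dose response in 96-well plates. GI50 is the concentration that inhibits growth by half.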 Calls of active or inactive are those of the source. Cut-off read from the data, not from the text of the source: active = GI50 up to about 1.1 µM and inactive = higher.
Columns and labels:
Experiment in all cases: DTP human tumour cell line panel, 48 h
[1] = tested on: K562
[2] = tested on: SK-MEL-28
[3] = tested on: SNB-75
[4] = tested on: ACHN
[5] = tested on: OVCAR-3
[6] = tested on: HCC 2998
[7] = tested on: CCRF-CEM
[8] = tested on: SK-OV-3
[9] = tested on: A498
[10] = tested on: NCI-H23
[11] = tested on: NCI-H226
[12] = tested on: 786-0
[13] = tested on: PC-3
[14] = tested on: A549
[15] = tested on: OVCAR-4
[16] = tested on: KM12
[17] = tested on: U-251
[18] = tested on: BT-549
[19] = tested on: UO-31
[20] = tested on: Hs-578T
[21] = tested on: UACC-257
[22] = tested on: COLO 205
[23] = tested on: MDA-N
[24] = tested on: NCI-H522
[25] = tested on: SW-620
[26] = tested on: OVCAR-8
[27] = tested on: SN12C
[28] = tested on: T47D
[29] = tested on: UACC-62
[30] = tested on: MOLT-4
[31] = tested on: Malme-3M
[32] = tested on: DU-145
[33] = tested on: CAKI-1
[34] = tested on: MDA-MB-231
[35] = tested on: SNB-19
[36] = tested on: HT-29
[37] = tested on: TK-10
[38] = tested on: SK-MEL-2
[39] = tested on: HCT-116
[40] = tested on: SF-295
[41] = tested on: MCF7
[42] = tested on: SF-539
[43] = tested on: HOP-62
[44] = tested on: SF-268
[45] = tested on: NCI/ADR-RES
[46] = tested on: M14
[47] = tested on: EKVX
[48] = tested on: SK-MEL-5
[49] = tested on: RXF 393
[50] = tested on: HCT-15
[51] = tested on: MDA-MB-435
[52] = tested on: HL-60
[53] = tested on: NCI-H460
[54] = tested on: HOP-92
[55] = tested on: LOX IMVI
[56] = tested on: OVCAR-5
[57] = tested on: IGROV-1
[58] = tested on: SR
[59] = tested on: RPMI-8226

## Cc1ccc(/C=C2\CCCC(CN(C)C)C2=O)cc1 (stereo not drawn)
[1]
  GI50: 1.66 µM (inactive)
[2]
  GI50: 1.95 µM (inactive)
[3]
  GI50: 8.13 µM (inactive)
[4]
  GI50: 2.24 µM (inactive)
[5]
  GI50: 1.76 µM (inactive)
[6]
  GI50: 14.2 µM (inactive)
[7]
  GI50: 1.26 µM (inactive)
[8]
  GI50: 13.6 µM (inactive)
[9]
  GI50: 14.3 µM (inactive)
[10]
  GI50: 2.24 µM (inactive)
[11]
  GI50: 2.56 µM (inactive)
[12]
  GI50: 1.63 µM (inactive)
[13]
  GI50: 3.33 µM (inactive)
[14]
  GI50: 15.6 µM (inactive)
[15]
  GI50: 2.02 µM (inactive)
[16]
  GI50: 1.55 µM (inactive)
[17]
  GI50: 13.5 µM (inactive)
[18]
  GI50: 2.49 µM (inactive)
[19]
  GI50: 1.69 µM (inactive)
[20]
  GI50: 3.21 µM (inactive)
[21]
  GI50: 1.88 µM (inactive)
[22]
  GI50: 1.73 µM (inactive)
[23]
  GI50: 1.97 µM (inactive)
[24]
  GI50: 0.0951 µM (active)
[25]
  GI50: 1.53 µM (inactive)
[26]
  GI50: 3.04 µM (inactive)
[27]
  GI50: 1.91 µM (inactive)
[28]
  GI50: 1.75 µM (inactive)
[29]
  GI50: 2.03 µM (inactive)
[30]
  GI50: 2.28 µM (inactive)
[31]
  GI50: 1.91 µM (inactive)
[32]
  GI50: 10.2 µM (inactive)
[33]
  GI50: 1.55 µM (inactive)
[34]
  GI50: 1.66 µM (inactive)
[35]
  GI50: 16.4 µM (inactive)
[36]
  GI50: 1.69 µM (inactive)
[37]
  GI50: 2.77 µM (inactive)
[38]
  GI50: 4.76 µM (inactive)
[39]
  GI50: 1.69 µM (inactive)
[40]
  GI50: 17.4 µM (inactive)
[41]
  GI50: 0.525 µM (active)
[42]
  GI50: 2.84 µM (inactive)
[43]
  GI50: 20.4 µM (inactive)
[44]
  GI50: 2.06 µM (inactive)
[45]
  GI50: 3.32 µM (inactive)
[46]
  GI50: 1.81 µM (inactive)
[47]
  GI50: 17.5 µM (inactive)
[48]
  GI50: 3.51 µM (inactive)
[49]
  GI50: 1.79 µM (inactive)
[50]
  GI50: 1.97 µM
[51]
  GI50: 1.85 µM (inactive)
[52]
  GI50: 0.841 µM (active)
[53]
  GI50: 3.48 µM (inactive)
[54]
  GI50: 1.88 µM (inactive)
[55]
  GI50: 1.77 µM (inactive)
[56]
  GI50: 15.8 µM (inactive)
[57]
  GI50: 1.96 µM (inactive)

## COc1cc(OC)c2nccc(NCCCN(C)C)c2c1[N+](=O)[O-]
[1]
  GI50: 87.9 µM (inactive)
[2]
  GI50: > 100 µM (inactive)
[3]
  GI50: 30.9 µM (inactive)
[4]
  GI50: > 100 µM (inactive)
[5]
  GI50: 49.3 µM (inactive)
[6]
  GI50: > 100 µM (inactive)
[7]
  GI50: > 100 µM (inactive)
[8]
  GI50: > 100 µM (inactive)
[9]
  GI50: > 100 µM (inactive)
[10]
  GI50: > 100 µM (inactive)
[12]
  GI50: > 100 µM (inactive)
[13]
  GI50: > 100 µM (inactive)
[14]
  GI50: > 100 µM (inactive)
[15]
  GI50: > 100 µM (inactive)
[58]
  GI50: 24.7 µM (inactive)
[16]
  GI50: > 100 µM (inactive)
[17]
  GI50: > 100 µM (inactive)
[59]
  GI50: > 100 µM (inactive)
[18]
  GI50: > 100 µM (inactive)
[19]
  GI50: > 100 µM (inactive)
[20]
  GI50: > 100 µM (inactive)
[21]
  GI50: 58.3 µM (inactive)
[22]
  GI50: 34.1 µM (inactive)
[23]
  GI50: > 100 µM (inactive)
[24]
  GI50: > 100 µM (inactive)
[25]
  GI50: 95.9 µM (inactive)
[26]
  GI50: > 100 µM (inactive)
[27]
  GI50: > 100 µM (inactive)
[28]
  GI50: > 100 µM (inactive)
[29]
  GI50: > 100 µM (inactive)
[30]
  GI50: > 100 µM (inactive)
[31]
  GI50: 55.1 µM (inactive)
[32]
  GI50: > 100 µM (inactive)
[33]
  GI50: > 100 µM (inactive)
[34]
  GI50: > 100 µM (inactive)
[35]
  GI50: > 100 µM (inactive)
[36]
  GI50: 35 µM (inactive)
[37]
  GI50: > 100 µM (inactive)
[38]
  GI50: > 100 µM (inactive)
[39]
  GI50: 62.4 µM (inactive)
[40]
  GI50: > 100 µM (inactive)
[41]
  GI50: > 100 µM (inactive)
[42]
  GI50: 45.7 µM (inactive)
[43]
  GI50: > 100 µM (inactive)
[44]
  GI50: > 100 µM (inactive)
[45]
  GI50: > 100 µM (inactive)
[46]
  GI50: 27.3 µM (inactive)
[48]
  GI50: > 100 µM (inactive)
[50]
  GI50: > 100 µM
[51]
  GI50: > 100 µM (inactive)
[52]
  GI50: 39.3 µM (inactive)
[53]
  GI50: 65.3 µM (inactive)
[54]
  GI50: 61.1 µM (inactive)
[55]
  GI50: > 100 µM (inactive)
[56]
  GI50: > 100 µM (inactive)
[57]
  GI50: 49.5 µM (inactive)
